Experimental data from PubChem BioAssay (NCI).
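Results reflect a 48-hour exposure of cells in 96-well plates to compound at five concentrations. GI50 marks 50% less growth. Definition used: TGI = concentration required for complete inhibition of growth.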

Key:
Experiment in all cases: NCI tumour cell line growth inhibition, 48 h
KM12 colon = tested on: KM12 colon
NCI-H226 lung = tested on: NCI-H226 lung
SF-295 CNS = tested on: SF-295 CNS
SW-620 colon = tested on: SW-620 colon
SNB-19 CNS = tested on: SNB-19 CNS
HOP-62 NSCLC = tested on: HOP-62 NSCLC
UACC-257 melanoma = tested on: UACC-257 melanoma
SK-MEL-2 melanoma = tested on: SK-MEL-2 melanoma
UACC-62 melanoma = tested on: UACC-62 melanoma
MCF7 breast = tested on: MCF7 breast

Structure (SMILES) | TGI (KM12 colon) [µM] | TGI (NCI-H226 lung) [µM] | TGI (SF-295 CNS) [µM] | TGI (SW-620 colon) [µM] | TGI (SNB-19 CNS) [µM] | TGI (HOP-62 NSCLC) [µM] | TGI (UACC-257 melanoma) [µM] | TGI (SK-MEL-2 melanoma) [µM] | TGI (UACC-62 melanoma) [µM] | TGI (MCF7 breast) [µM] | GI50 (KM12 colon) [µM] | GI50 (NCI-H226 lung) [µM] | GI50 (SF-295 CNS) [µM] | GI50 (SW-620 colon) [µM] | GI50 (SNB-19 CNS) [µM] | GI50 (HOP-62 NSCLC) [µM] | GI50 (UACC-257 melanoma) [µM] | GI50 (SK-MEL-2 melanoma) [µM] | GI50 (UACC-62 melanoma) [µM]
CC12CC3(C)CC(C)(C1)CC(N=[N+]=[N-])(C2)C3 | > 100 | > 100 | > 100 | > 100 | > 100 | > 100 | > 100 | > 100 | > 100 | – | – | – | – | – | – | – | – | – | –
Clc1ccccc1NN(Cc1ccccn1)c1ccccc1Cl | 32.9 | 31.6 | 71.4 | 37.7 | 79.7 | 34.3 | – | 32.6 | 43.8 | > 100 | – | – | – | – | – | – | – | – | –
O=C(c1ccccc1)c1c(CC(O)c2cccnc2)n(C(=O)c2ccccc2)c2ccccc12 (configuration not stated) | 36.3 | 24.6 | 35.6 | 74.9 | 63.1 | 30.4 | 42 | 35.8 | 34.3 | – | – | – | – | – | – | – | – | – | –
O=C1c2ccccc2N2OC3(N4CCCC4)CCCC3C12c1ccccc1 (configuration not stated) | – | > 100 | > 100 | > 100 | > 100 | > 100 | > 100 | – | > 100 | – | – | – | – | – | – | – | – | – | –
C=C(C)C1CC2C(C)=C(OC(C)=O)C1n1c(=O)c3cc4ccccc4cc3c(=O)n12 (configuration not stated) | > 100 | > 100 | > 100 | > 100 | > 100 | > 100 | > 100 | > 100 | > 100 | – | – | – | – | – | – | – | – | – | –
CC(C)N(C(C)C)[PH+]1O[PH+](N(C(C)C)C(C)C)O[PH+](N(C(C)C)C(C)C)O[PH+](N(C(C)C)C(C)C)O[PH+](N(C(C)C)C(C)C)O1.[C-]#[O+].[C-]#[O+].[C-]#[O+].[C-]#[O+].[C-]#[O+].[C-]#[O+].[C-]#[O+].[Cr].[Cr] (configuration not stated) | > 100 | > 100 | > 100 | > 100 | > 100 | > 100 | > 100 | > 100 | > 100 | – | > 100 | > 100 | > 100 | > 100 | > 100 | > 100 | > 100 | > 100 | > 100
CC(C)(C)OC(=O)NCC(C#N)CNC(=O)OC(C)(C)C | > 100 | > 100 | > 100 | > 100 | > 100 | > 100 | > 100 | – | > 100 | > 100 | – | – | – | – | – | – | – | – | –
O=[N+]([O-])c1ccc(N=Nc2c(O)[nH]c3ccc([N+](=O)[O-])cc23)cc1 | 30.8 | 7 | 27.5 | 29.5 | 40.5 | 38.3 | 59.7 | > 100 | 36.5 | – | – | – | – | – | – | – | – | – | –
COc1ccc(C(C2=C(C)C(=O)c3ccccc3C2=O)c2ccc(C(C)C)cc(=O)c2O)cc1 (configuration not stated) | > 100 | 4.94 | 23 | > 100 | – | 6.65 | – | 22.3 | – | – | – | – | – | – | – | – | – | – | –
O=C(C(=O)c1ccc(Cc2ccc(C(=O)C(=O)c3ccccc3)cc2)cc1)c1ccccc1 | > 100 | > 100 | > 100 | > 100 | > 100 | > 100 | > 100 | > 100 | > 100 | – | – | – | – | – | – | – | – | – | –
CC(=O)N(CCN)CCN | > 10 | – | > 10 | > 10 | > 10 | > 10 | > 10 | > 100 | > 100 | – | – | – | – | – | – | – | – | – | –
